# Values joined by “and” are separate entries in the source; they are usually repeats but may differ in a detail not shown here. Identical values can stand only once.
# System: A/California/09
# Design: species or system BALB/c mice
# Settings: mouse, in vivo
smiles,measurement,value
CCOC(=O)C1=C[C@@H](OC(CC)CC)[C@H](NC(C)=O)[C@@H](N)C1 [oseltamivir],survival,10/10 and 0 out of 10 and no survival
